# What was measured:
# Format in all cases: in vivo
# rice (Oryza sativa) = test: Test B flooded paddy test, plant response rating; conditions: 250 g ai/ha; Flood; scale of 0 to 100 where 0 is no effect and 100 is complete control; 13 to 15 days
# Method in brief: (§1)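 Ratings were visual and made relative to untreated controls after 13 to 15 greenhouse days.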
# [1] = test system: ducksalad (Heteranthera limosa); test: Test B flooded paddy test, plant response rating; conditions: 250 g ai/ha; Flood; scale of 0 to 100 where 0 is no effect and 100 is complete control; 13 to 15 days
# Method in brief: as §1
# [2] = test system: sedge, umbrella (small-flower umbrella sedge, Cyperus difformis); test: Test B flooded paddy test, plant response rating; conditions: 250 g ai/ha; Flood; scale of 0 to 100 where 0 is no effect and 100 is complete control; 13 to 15 days
# Method in brief: as §1
# [3] = test system: barnyardgrass (Echinochloa crus-galli); test: Test B flooded paddy test, plant response rating; conditions: 250 g ai/ha; Flood; scale of 0 to 100 where 0 is no effect and 100 is complete control; 13 to 15 days
# Method in brief: as §1
# [4] = test system: ragweed (common ragweed, Ambrosia elatior); test: Test A preemergence, visual injury rating
# Method in brief: (§2)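 Injury scores run from 0, no effect, to 100, complete control, judged by eye against untreated plants roughly 10 days after treatment. Chemicals carried a surfactant in a non-phytotoxic solvent and went onto loam–sand soil preemergence or onto one- to two-leaf seedlings postemergence.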
# [5] = test system: pigweed (Amaranthus retroflexus); test: Test A preemergence, visual injury rating
# Method in brief: as §2
# [6] = test system: giant foxtail (Setaria faberii); test: Test A preemergence, visual injury rating
# Method in brief: as §2
# kochia (Kochia scoparia) [7] = test: Test A preemergence, visual injury rating
# Method in brief: as §2
# [8] = test system: Italian ryegrass (Lolium multiflorum); test: Test A preemergence, visual injury rating
# Method in brief: as §2
# [9] = test system: barnyardgrass (Echinochloa crus-galli); test: Test A preemergence, visual injury rating
# Method in brief: as §2
# [10] = test system: wheat (Triticum aestivum); test: Test A postemergence, visual injury rating; conditions: 0 is no effect, 100 is complete control; for Wheat plant response rating: 0 to 100 scale, approximately 10 days
# Method in brief: as §2
# [11] = test system: ragweed (common ragweed, Ambrosia elatior); test: Test A postemergence, visual injury rating; conditions: 0 is no effect, 100 is complete control; for Ragweed plant response rating: 0 to 100 scale, approximately 10 days
# Method in brief: as §2
# [12] = test system: blackgrass (Alopecurus myosuroides); test: Test A postemergence, visual injury rating; conditions: 0 is no effect, 100 is complete control; for Blackgrass plant response rating: 0 to 100 scale, approximately 10 days
# Method in brief: as §2
# [13] = test system: pigweed (Amaranthus retroflexus); test: Test A postemergence, visual injury rating; conditions: 0 is no effect, 100 is complete control; for Pigweed plant response rating: 0 to 100 scale, approximately 10 days
# Method in brief: as §2
# [14] = test system: giant foxtail (Setaria faberii); test: Test A postemergence, visual injury rating; conditions: 0 is no effect, 100 is complete control; for Foxtail, Giant plant response rating: 0 to 100 scale, approximately 10 days
# Method in brief: as §2
# kochia (Kochia scoparia) [15] = test: Test A postemergence, visual injury rating; conditions: 0 is no effect, 100 is complete control; for Kochia plant response rating: 0 to 100 scale, approximately 10 days
# Method in brief: as §2
# corn (Zea mays) = test: Test A postemergence, visual injury rating; conditions: 0 is no effect, 100 is complete control; for Corn plant response rating: 0 to 100 scale, approximately 10 days
# Method in brief: as §2
# [16] = test system: Italian ryegrass (Lolium multiflorum); test: Test A postemergence, visual injury rating; conditions: 0 is no effect, 100 is complete control; for Ryegrass, Italian plant response rating: 0 to 100 scale, approximately 10 days
# Method in brief: as §2
# [17] = test system: galium (catchweed bedstraw, Galium aparine); test: Test A postemergence, visual injury rating; conditions: 0 is no effect, 100 is complete control; for Galium plant response rating: 0 to 100 scale, approximately 10 days
# Method in brief: as §2
# [18] = test system: barnyardgrass (Echinochloa crus-galli); test: Test A postemergence, visual injury rating; conditions: 0 is no effect, 100 is complete control; for Barnyardgrass plant response rating: 0 to 100 scale, approximately 10 days
# Method in brief: as §2
# [19] = 125 g ai/ha, 0 to 100 scale (0 no effect, 100 complete control)
# [20] = 500 g ai/ha, 0 to 100 scale (0 no effect, 100 complete control)
# [21] = 31 g ai/ha, 0 to 100 scale, 0 no effect, 100 complete control
smiles,measurement,setting,value
CC(C)=CCOC(=O)c1c(Br)cccc1Oc1ncc(Cl)cn1 [Compound 11],"Plant response rating, Rice",rice (Oryza sativa),0
same,"Plant response rating, Ducksalad",[1],0
same,"Plant response rating, Sedge, Umbrella",[2],0
same,"Plant response rating, Barnyardgrass",[3],0
same,Ragweed plant response rating,[4]; [19],0
same,Ragweed plant response rating,[4]; [20],0
same,Pigweed plant response rating,[5]; [19],0
same,Pigweed plant response rating,[5]; [20],20
same,"Foxtail, Giant plant response rating",[6]; [19],40
same,"Foxtail, Giant plant response rating",[6]; [20],100
same,Kochia plant response rating,kochia (Kochia scoparia) [7]; [19],0
same,Kochia plant response rating,kochia (Kochia scoparia) [7]; [20],0
same,"Ryegrass, Italian plant response rating",[8]; [19],0
same,"Ryegrass, Italian plant response rating",[8]; [20],0
same,Barnyardgrass plant response rating,[9]; [19],0
same,Barnyardgrass plant response rating,[9]; [20],30
same,Wheat plant response rating (0 to 100 scale),[10]; 125 g ai/ha,0
same,Wheat plant response rating (0 to 100 scale),[10]; 500 g ai/ha,0
same,Ragweed plant response rating (0 to 100 scale),[11]; 125 g ai/ha,0
same,Ragweed plant response rating (0 to 100 scale),[11]; 500 g ai/ha,0
same,Blackgrass plant response rating (0 to 100 scale),[12]; 125 g ai/ha,0
same,Blackgrass plant response rating (0 to 100 scale),[12]; 500 g ai/ha,20
same,Pigweed plant response rating (0 to 100 scale),[13]; 125 g ai/ha,10
same,Pigweed plant response rating (0 to 100 scale),[13]; 500 g ai/ha,60
same,"Foxtail, Giant plant response rating (0 to 100 scale)",[14]; 125 g ai/ha,20
same,"Foxtail, Giant plant response rating (0 to 100 scale)",[14]; 500 g ai/ha,20
same,Kochia plant response rating (0 to 100 scale),kochia (Kochia scoparia) [15]; 125 g ai/ha,0
same,Kochia plant response rating (0 to 100 scale),kochia (Kochia scoparia) [15]; 500 g ai/ha,40
same,Corn plant response rating (0 to 100 scale),corn (Zea mays); 125 g ai/ha,0
same,Corn plant response rating (0 to 100 scale),corn (Zea mays); 500 g ai/ha,10
same,"Ryegrass, Italian plant response rating (0 to 100 scale)",[16]; 125 g ai/ha,0
same,"Ryegrass, Italian plant response rating (0 to 100 scale)",[16]; 500 g ai/ha,0
same,Galium plant response rating (0 to 100 scale),[17]; 125 g ai/ha,10
same,Galium plant response rating (0 to 100 scale),[17]; 500 g ai/ha,20
same,Barnyardgrass plant response rating (0 to 100 scale),[18]; 125 g ai/ha,10
same,Barnyardgrass plant response rating (0 to 100 scale),[18]; 500 g ai/ha,20
FC(F)(F)CCCc1c(Cl)cccc1Oc1ncc(Cl)cn1 [Compound 122],"Plant response rating, Rice",rice (Oryza sativa),40
same,"Plant response rating, Ducksalad",[1],100
same,"Plant response rating, Sedge, Umbrella",[2],100
same,"Plant response rating, Barnyardgrass",[3],80
same,"Plant response rating, Ragweed",[4]; [21],0
same,"Plant response rating, Ragweed",[4]; [19],0
same,"Plant response rating, Pigweed",[5]; [21],40
same,"Plant response rating, Pigweed",[5]; [19],90
same,"Plant response rating, Foxtail, Giant",[6]; [21],0
same,"Plant response rating, Foxtail, Giant",[6]; [19],40
same,"Plant response rating, Kochia",kochia (Kochia scoparia) [7]; [21],10
same,"Plant response rating, Kochia",kochia (Kochia scoparia) [7]; [19],70
same,"Plant response rating, Ryegrass, Italian",[8]; [21],0
same,"Plant response rating, Ryegrass, Italian",[8]; [19],30
same,"Plant response rating, Barnyardgrass",[9]; [21],30
same,"Plant response rating, Barnyardgrass",[9]; [19],90
same,Wheat plant response rating,[10]; 31 g ai/ha,0
same,Wheat plant response rating,[10]; 125 g ai/ha,0
same,Ragweed plant response rating,[11]; 31 g ai/ha,0
same,Ragweed plant response rating,[11]; 125 g ai/ha,10
same,Blackgrass plant response rating,[12]; 31 g ai/ha,20
same,Blackgrass plant response rating,[12]; 125 g ai/ha,60
same,Pigweed plant response rating,[13]; 31 g ai/ha,70
same,Pigweed plant response rating,[13]; 125 g ai/ha,100
same,"Foxtail, Giant plant response rating",[14]; 31 g ai/ha,10
same,"Foxtail, Giant plant response rating",[14]; 125 g ai/ha,40
same,Kochia plant response rating,kochia (Kochia scoparia) [15]; 31 g ai/ha,80
same,Kochia plant response rating,kochia (Kochia scoparia) [15]; 125 g ai/ha,80
same,Corn plant response rating,corn (Zea mays); 31 g ai/ha,10
same,Corn plant response rating,corn (Zea mays); 125 g ai/ha,20
same,"Ryegrass, Italian plant response rating",[16]; 31 g ai/ha,0
same,"Ryegrass, Italian plant response rating",[16]; 125 g ai/ha,20
same,Galium plant response rating,[17]; 31 g ai/ha,30
same,Galium plant response rating,[17]; 125 g ai/ha,60
same,Barnyardgrass plant response rating,[18]; 31 g ai/ha,10
same,Barnyardgrass plant response rating,[18]; 125 g ai/ha,50
O=C(OC1CCC1)c1c(Br)cccc1Oc1ncc(Cl)cn1 [Compound 78],"Plant response rating, Rice",rice (Oryza sativa),15
same,"Plant response rating, Ducksalad",[1],70
same,"Plant response rating, Sedge, Umbrella",[2],80
same,"Plant response rating, Barnyardgrass",[3],20
same,Ragweed plant response rating,[4]; [19],0
same,Ragweed plant response rating,[4]; [20],0
same,Pigweed plant response rating,[5]; [19],80
same,Pigweed plant response rating,[5]; [20],100
same,"Foxtail, Giant plant response rating",[6]; [19],90
same,"Foxtail, Giant plant response rating",[6]; [20],100
same,Kochia plant response rating,kochia (Kochia scoparia) [7]; [19],20
same,Kochia plant response rating,kochia (Kochia scoparia) [7]; [20],60
same,"Ryegrass, Italian plant response rating",[8]; [19],0
same,"Ryegrass, Italian plant response rating",[8]; [20],20
same,Barnyardgrass plant response rating,[9]; [19],60
same,Barnyardgrass plant response rating,[9]; [20],100
same,Wheat plant response rating,[10]; 125 g ai/ha,20
same,Wheat plant response rating (0 to 100 scale),[10]; 500 g ai/ha,30
same,Ragweed plant response rating,[11]; 125 g ai/ha,0
same,Ragweed plant response rating (0 to 100 scale),[11]; 500 g ai/ha,30
same,Blackgrass plant response rating (0 to 100 scale),[12]; 125 g ai/ha,20
same,Blackgrass plant response rating (0 to 100 scale),[12]; 500 g ai/ha,60
same,Pigweed plant response rating,[13]; 125 g ai/ha,80
same,Pigweed plant response rating (0 to 100 scale),[13]; 500 g ai/ha,90
same,"Foxtail, Giant plant response rating (0 to 100 scale)",[14]; 125 g ai/ha,50
same,"Foxtail, Giant plant response rating (0 to 100 scale)",[14]; 500 g ai/ha,80
same,Kochia plant response rating,kochia (Kochia scoparia) [15]; 125 g ai/ha,70
same,Kochia plant response rating (0 to 100 scale),kochia (Kochia scoparia) [15]; 500 g ai/ha,100
same,Corn plant response rating (0 to 100 scale),corn (Zea mays); 125 g ai/ha,40
same,Corn plant response rating (0 to 100 scale),corn (Zea mays); 500 g ai/ha,60
same,"Ryegrass, Italian plant response rating",[16]; 125 g ai/ha,0
same,"Ryegrass, Italian plant response rating (0 to 100 scale)",[16]; 500 g ai/ha,30
same,Galium plant response rating (0 to 100 scale),[17]; 125 g ai/ha,70
same,Galium plant response rating (0 to 100 scale),[17]; 500 g ai/ha,100
same,Barnyardgrass plant response rating (0 to 100 scale),[18]; 125 g ai/ha,60
same,Barnyardgrass plant response rating (0 to 100 scale),[18]; 500 g ai/ha,100
